Values belong to the compound of their own block, whether it stands above or below them.
What was measured:
human NK-1 receptors = biological target: T1, human NK-1 receptors (Homo sapiens, UniProt P25103); experiment: Binding affinity to human NK-1 receptors ([3H]-substance P displacement, membranes of CHO cells); settings: membrane preparation of CHO cells expressing human NK-1 receptor, Ki calculated from IC50, read-out: In vitro binding to human NK-1 receptors - Ki value
T1 construct: expressed in transfected cells; host or cells: CHO cells (membrane preparation)
Description: 1. Determination of the binding power of the test substances to NK-1 receptors.
The affinity of the test substances to human NK-1 receptors was measured in vitro, and the inhibition of the binding of the physiological neurokinin substance P to neurokinin-1 receptors was determined.
The receptor binding studies were performed with [^3 H]-substance P as ligand. For the binding test, different samples of a membrane preparation of CHO cells (=egg cells of the Chinese hamster, […]), which express the human NK-1 receptor, were incubated with a solution of the marked ligand, with the incubation mixtures containing no test substance or additions of different concentrations of test substance. Then, bound and free ligands in each of the samples were separated with the aid of glass-fiber filtration. The fraction remaining in the filter was washed several times with buffer solution, and then the radioactivity of the fraction remaining in the filter was measured using a beta scintillation counter. That concentration which effects half maximum displacement of the bound ligand was determined as IC50 of the respective test substance. From this, the corresponding inhibition constant (Ki value) of the test substance was calculated.
The example numbers listed for the compounds of Formula I relate to the following preparative examples.

[1] = test system: stool passage through the colon of the rat; experiment: Influencing of colon passage: barium sulfate elimination after oral administration in rats; format: in vivo
Description: 2. Investigation of the activity of the compounds on stool passage through the colon of the rat.
The effects of the test substances on the transport of stools through the large intestine were examined in rats after feeding. After feeding, the beginning of elimination and the mean dwell time of barium sulfate in the colon were determined as a measurement of the colon motility leading to elimination of stools.
After oral administration of the test substance, the animals were administered 2 ml of an 80% barium sulfate suspension via an artificial outlet at the caecum. The animals were placed in metabolism cages, and the faeces were collected at one hour intervals over 24 hours. The content of barium sulfate in the faeces was measured using radiography, and the beginning of elimination of barium sulfate and the mean retention time were determined therefrom. The delays in the beginning of elimination and prolongations of the mean residence time of the barium sulfate achieved in this experimental arrangement with various doses of the test substance of Example 1 can be seen from the following Table 2. The time interval up to the beginning of elimination and the mean retention time are given in percentages relative to the values obtained in a control test without test substance (=100%).

[2] = test system: visceral sensitivity to pain in rats (distension-induced contractions of the abdominal muscles); experiment: Influencing of the visceral sensitivity to pain: distension-induced abdominal contractions in rats; format: in vivo; settings: rat, subcutaneous, 20 minutes after administration
From the text: 3. Investigation of the activity of the compounds on the visceral sensitivity to pain in rats.
Visceral pain leads to visceral reactions which manifest themselves, inter alia, by contractions of the abdominal muscles. The number of contractions of the abdominal muscles occurring after a mechanical pain stimulus caused by distending the large intestine is thus a measurement for determining the visceral sensitivity to pain.
The inhibiting activity of the test substances on distension-induced abdominal contractions was tested in rats. The distension of the large intestine with an introduced balloon was used as the stimulus; the contraction of the abdominal muscles was measured as response. One hour after the sensitising of the large intestine by instillation of dilute acetic acid (0.6%, 1.5 ml), a latex balloon was introduced and inflated to 100 mbar for 10 minutes. During this time, the contractions of the abdominal muscles were counted. 20 minutes after subcutaneous administration of the test substance, this measurement was repeated. The activity of the test substance was calculated as a percentage reduction in the counted contractions compared with the control. The reductions in the number of abdominal contractions achieved with different doses of the test substance of Example 1 are listed in percentages, relative to the control values (=100%) measured before ingestion of the substance in the following Table 3.

T1 sequence (P25103 whole entry): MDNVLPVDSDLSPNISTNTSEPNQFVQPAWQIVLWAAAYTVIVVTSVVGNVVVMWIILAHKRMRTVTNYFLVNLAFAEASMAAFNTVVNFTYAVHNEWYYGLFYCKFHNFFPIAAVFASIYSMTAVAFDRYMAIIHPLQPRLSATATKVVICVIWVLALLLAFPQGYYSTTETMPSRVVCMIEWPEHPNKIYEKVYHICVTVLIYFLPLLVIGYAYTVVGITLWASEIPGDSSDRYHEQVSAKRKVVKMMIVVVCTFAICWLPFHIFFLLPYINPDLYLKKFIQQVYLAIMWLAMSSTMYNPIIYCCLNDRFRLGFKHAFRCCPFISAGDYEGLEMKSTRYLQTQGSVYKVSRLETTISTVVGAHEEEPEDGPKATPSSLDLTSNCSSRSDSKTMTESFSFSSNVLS

SMILES: COc1ccccc1CN(C)CCCC(=O)N1CCC(c2ccccc2)N(C(=O)c2cc(C(F)(F)F)cc(C(F)(F)F)c2)CC1 (single isomer, unassigned; (-)) [Example 2, (-)-1-(3,5-bistrifluoromethylbenzoyl)-4-{[3-[N-(2-methoxybenzyl)-N-methyl]amino]propylcarbonyl}-7-phenyl-1,4-diazepane]
Ki (human NK-1 receptors): 0.01 µM

SMILES: COc1ccccc1CN(C)CCCC(=O)N1CCC(c2ccccc2)N(C(=O)c2cc(C(F)(F)F)cc(C(F)(F)F)c2)CC1 (stereo not shown) [Example 1, 1-(3,5-bistrifluoromethylbenzoyl)-4-{[3-[N-(2-methoxybenzyl)-N-methyl]amino]propylcarbonyl}-7-phenyl-1,4-diazepane]
Mean retention time in % relative to control value = 100% ([1]; 10 μmole/kg): 98%
Time interval until beginning of elimination in % relative to control value = 100% ([1]; 10 μmole/kg): 100%
Mean retention time in % relative to control value = 100% ([1]; 21.5 μmole/kg): 106%
Time interval until beginning of elimination in % relative to control value = 100% ([1]; 21.5 μmole/kg): 115%
Mean retention time in % relative to control value = 100% ([1]; 100 μmole/kg): 119%
Time interval until beginning of elimination in % relative to control value = 100% ([1]; 100 μmole/kg): 138%
Reduction in the number of distension-induced contractions of the abdominal muscles in % relative to control value = 100% ([2]; 10 μmole/kg): 33%
Reduction in the number of distension-induced contractions of the abdominal muscles in % relative to control value = 100% ([2]; 21.5 μmole/kg): 39%
Reduction in the number of distension-induced contractions of the abdominal muscles in % relative to control value = 100% ([2]; 100 μmole/kg): 61%
Ki (human NK-1 receptors): 0.012 µM

Ki (human NK-1 receptors): 0.008 µM
SMILES: COc1ccccc1CNCC(=O)N1CCC(c2ccccc2)N(C(=O)c2cc(C)cc(C)c2)CC1 (stereo not shown) [Example 4, 1-(3,5-dimethylbenzoyl)-4-{[N-(2-methoxybenzyl)amino]acetyl}-7-phenyl-1,4-diazepane]

Ki (human NK-1 receptors): 0.01 µM
SMILES: COc1ccccc1CNCCCC(=O)N1CCC(c2ccccc2)N(C(=O)c2cc(C(F)(F)F)cc(C(F)(F)F)c2)CC1 (stereo not shown) [Example 14]

Reference: patent US6040303A, “7-phenyl-1, 4-diazepane compounds, process for their preparation, and pharmaceutical compositions containing them” (Solvay Pharmaceuticals GmbH, priority 1997, dated 2000)
